Results on six compounds are retold here after ChEMBL document CHEMBL4196228, “Potential Treatment of Acute Leukemia with Inhibitors of Menin/MLL Interaction” (ACS Med Chem Lett, 2018).

Usually IC50 stands for the point on the concentration scale where inhibition reaches its midpoint.

The structures appear in SMILES notation.

For one assay, the system named is MOLM-14. Nature of the assay: Antiproliferative activity against human MOLM14 cell spheroids. Format: functional, cell-based.
For assay [1], the target named is T1, Menin/Histone-lysine N-methyltransferase MLL (Homo sapiens, UniProt O00255). Nature of the assay: Inhibition of menin-MLL1 (unknown origin) protein-protein interaction by fluorescence polarization assay. On the technique in general: In fluorescence polarisation assays a small probe gives low polarisation when free and higher when bound to something large.
T1 sequence (O00255 whole entry): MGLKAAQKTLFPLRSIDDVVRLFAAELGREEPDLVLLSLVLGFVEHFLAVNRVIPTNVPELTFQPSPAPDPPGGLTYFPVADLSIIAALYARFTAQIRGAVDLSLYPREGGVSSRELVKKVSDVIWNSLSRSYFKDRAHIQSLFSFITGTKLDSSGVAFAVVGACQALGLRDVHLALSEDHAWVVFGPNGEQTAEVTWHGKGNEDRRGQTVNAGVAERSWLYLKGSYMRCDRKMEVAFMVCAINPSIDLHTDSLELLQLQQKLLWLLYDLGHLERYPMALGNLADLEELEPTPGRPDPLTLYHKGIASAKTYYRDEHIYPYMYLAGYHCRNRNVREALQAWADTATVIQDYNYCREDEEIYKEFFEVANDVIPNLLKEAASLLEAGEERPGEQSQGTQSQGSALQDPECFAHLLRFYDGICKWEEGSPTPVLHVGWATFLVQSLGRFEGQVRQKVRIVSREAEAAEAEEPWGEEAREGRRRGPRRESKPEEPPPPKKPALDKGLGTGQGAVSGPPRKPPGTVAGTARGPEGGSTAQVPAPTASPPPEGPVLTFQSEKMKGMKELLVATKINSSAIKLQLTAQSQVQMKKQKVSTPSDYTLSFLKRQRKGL
T1 sequence (Q03164 1-2718 partner limits assumed): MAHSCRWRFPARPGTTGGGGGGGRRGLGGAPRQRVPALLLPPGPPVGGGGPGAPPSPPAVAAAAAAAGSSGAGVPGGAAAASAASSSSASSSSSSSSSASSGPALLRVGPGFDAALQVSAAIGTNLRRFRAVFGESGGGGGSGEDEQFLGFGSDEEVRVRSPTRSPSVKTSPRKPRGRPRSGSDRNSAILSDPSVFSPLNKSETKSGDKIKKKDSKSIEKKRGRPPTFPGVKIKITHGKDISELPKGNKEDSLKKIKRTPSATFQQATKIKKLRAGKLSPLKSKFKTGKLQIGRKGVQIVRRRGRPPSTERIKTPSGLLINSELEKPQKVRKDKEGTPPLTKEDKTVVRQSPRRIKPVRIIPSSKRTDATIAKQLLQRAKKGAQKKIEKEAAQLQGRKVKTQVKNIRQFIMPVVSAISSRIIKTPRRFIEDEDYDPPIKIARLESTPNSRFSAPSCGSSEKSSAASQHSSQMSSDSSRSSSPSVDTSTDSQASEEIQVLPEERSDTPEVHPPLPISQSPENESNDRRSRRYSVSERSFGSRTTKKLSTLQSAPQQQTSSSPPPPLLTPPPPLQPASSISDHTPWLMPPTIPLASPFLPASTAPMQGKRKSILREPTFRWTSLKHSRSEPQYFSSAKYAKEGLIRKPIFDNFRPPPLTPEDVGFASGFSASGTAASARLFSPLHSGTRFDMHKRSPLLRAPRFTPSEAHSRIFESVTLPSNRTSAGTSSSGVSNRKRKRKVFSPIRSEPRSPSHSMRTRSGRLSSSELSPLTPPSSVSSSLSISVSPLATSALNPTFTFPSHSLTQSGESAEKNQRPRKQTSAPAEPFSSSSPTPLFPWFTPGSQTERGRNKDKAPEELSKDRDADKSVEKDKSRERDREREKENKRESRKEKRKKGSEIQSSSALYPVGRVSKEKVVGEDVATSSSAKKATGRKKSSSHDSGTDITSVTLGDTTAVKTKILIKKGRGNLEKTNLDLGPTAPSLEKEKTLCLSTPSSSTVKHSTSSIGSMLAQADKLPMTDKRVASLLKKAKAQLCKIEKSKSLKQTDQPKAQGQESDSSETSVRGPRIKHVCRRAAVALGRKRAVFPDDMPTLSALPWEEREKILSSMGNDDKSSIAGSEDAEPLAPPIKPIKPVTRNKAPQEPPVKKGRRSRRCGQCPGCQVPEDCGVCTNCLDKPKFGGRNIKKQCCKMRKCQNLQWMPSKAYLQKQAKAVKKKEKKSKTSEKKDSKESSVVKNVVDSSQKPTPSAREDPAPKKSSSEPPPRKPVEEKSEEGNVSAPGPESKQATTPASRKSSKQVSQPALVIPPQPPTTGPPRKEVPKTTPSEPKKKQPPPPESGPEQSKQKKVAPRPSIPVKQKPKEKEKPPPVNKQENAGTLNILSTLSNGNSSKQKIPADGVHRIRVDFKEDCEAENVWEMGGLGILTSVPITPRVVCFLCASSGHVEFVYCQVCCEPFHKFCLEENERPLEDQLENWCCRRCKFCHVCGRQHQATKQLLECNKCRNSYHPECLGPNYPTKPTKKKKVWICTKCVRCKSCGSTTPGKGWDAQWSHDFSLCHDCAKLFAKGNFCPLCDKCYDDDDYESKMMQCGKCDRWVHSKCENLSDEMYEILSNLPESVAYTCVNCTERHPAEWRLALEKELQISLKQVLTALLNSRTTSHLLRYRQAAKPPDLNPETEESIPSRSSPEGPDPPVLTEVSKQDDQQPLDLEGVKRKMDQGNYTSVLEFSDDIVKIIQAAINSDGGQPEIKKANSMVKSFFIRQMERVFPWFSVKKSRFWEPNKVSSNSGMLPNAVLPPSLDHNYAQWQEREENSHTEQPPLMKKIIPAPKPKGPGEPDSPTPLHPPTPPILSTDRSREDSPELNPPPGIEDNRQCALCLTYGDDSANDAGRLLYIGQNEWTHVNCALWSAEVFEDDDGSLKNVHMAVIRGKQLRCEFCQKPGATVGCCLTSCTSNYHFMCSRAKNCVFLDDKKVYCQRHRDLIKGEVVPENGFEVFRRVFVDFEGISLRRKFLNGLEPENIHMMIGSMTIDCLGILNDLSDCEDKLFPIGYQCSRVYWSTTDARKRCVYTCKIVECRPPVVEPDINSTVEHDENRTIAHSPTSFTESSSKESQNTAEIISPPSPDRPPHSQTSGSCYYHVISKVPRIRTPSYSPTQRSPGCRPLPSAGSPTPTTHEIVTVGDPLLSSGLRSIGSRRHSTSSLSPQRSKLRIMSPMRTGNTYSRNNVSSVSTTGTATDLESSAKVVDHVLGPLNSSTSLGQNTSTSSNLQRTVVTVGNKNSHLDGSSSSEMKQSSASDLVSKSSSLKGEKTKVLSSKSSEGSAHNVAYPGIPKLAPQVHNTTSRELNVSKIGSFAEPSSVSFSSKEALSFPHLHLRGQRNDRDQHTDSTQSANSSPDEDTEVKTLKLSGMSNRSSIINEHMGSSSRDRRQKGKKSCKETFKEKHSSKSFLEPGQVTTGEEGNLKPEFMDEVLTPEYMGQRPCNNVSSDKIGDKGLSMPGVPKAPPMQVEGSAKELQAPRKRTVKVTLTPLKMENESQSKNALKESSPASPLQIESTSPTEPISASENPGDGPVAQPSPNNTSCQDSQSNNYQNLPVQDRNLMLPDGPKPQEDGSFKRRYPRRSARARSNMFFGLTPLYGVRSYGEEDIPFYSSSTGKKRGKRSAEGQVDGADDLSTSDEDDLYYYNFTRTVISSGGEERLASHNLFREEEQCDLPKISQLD
T1 sequence (Q03164 2719-3969 partner limits assumed): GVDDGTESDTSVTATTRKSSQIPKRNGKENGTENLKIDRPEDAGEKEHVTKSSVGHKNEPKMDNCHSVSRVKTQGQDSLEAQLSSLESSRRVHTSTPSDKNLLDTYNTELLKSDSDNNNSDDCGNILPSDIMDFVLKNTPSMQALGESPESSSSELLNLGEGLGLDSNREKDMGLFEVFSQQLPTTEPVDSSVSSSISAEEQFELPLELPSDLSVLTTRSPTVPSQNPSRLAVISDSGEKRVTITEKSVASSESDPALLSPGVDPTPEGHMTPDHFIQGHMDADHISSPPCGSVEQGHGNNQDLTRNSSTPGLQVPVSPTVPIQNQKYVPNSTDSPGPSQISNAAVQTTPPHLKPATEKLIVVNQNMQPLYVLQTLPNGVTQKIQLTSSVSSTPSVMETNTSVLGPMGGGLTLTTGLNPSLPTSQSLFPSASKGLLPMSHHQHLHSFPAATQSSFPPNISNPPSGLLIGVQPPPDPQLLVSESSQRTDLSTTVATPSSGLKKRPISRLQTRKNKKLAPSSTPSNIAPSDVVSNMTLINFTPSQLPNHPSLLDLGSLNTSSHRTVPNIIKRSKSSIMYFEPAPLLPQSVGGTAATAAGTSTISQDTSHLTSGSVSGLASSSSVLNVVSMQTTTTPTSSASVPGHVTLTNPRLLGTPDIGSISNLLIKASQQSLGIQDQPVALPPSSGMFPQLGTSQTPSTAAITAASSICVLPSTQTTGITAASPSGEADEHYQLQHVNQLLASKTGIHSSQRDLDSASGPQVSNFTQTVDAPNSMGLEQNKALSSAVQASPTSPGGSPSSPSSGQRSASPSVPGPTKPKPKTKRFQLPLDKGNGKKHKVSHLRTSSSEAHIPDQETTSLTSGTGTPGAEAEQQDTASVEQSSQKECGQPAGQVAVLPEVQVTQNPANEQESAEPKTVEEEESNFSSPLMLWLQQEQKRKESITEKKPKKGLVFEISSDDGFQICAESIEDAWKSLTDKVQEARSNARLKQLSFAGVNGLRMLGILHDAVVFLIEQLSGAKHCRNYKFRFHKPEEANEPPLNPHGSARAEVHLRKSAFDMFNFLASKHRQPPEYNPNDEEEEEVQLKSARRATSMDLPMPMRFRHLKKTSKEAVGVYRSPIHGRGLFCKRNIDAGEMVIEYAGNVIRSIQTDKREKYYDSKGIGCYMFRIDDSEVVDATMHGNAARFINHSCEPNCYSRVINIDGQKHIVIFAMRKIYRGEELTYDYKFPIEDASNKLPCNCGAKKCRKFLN
The test system of a further assay is MV4-11. The assay can be described thus: Antiproliferative activity against human MV411 cell spheroids. Format: functional, cell-based.
Assay [2] has as its target T1, Menin/Histone-lysine N-methyltransferase MLL. Nature of the assay: Inhibition of menin-MLL1 (unknown origin) protein-protein interaction by HTRF assay. For orientation: In TR-FRET formats the signal depends on donor and acceptor labels being close together.

On to `FC(F)(F)Cc1cc2c(N3CCCC4(CCN(Cc5ccccc5)C4)C3)ncnc2s1` (centres undefined), for which the IC50 with MOLM-14 stood at 7700 nM; in assay [1], 140 nM; with MV4-11, 3900 nM; in assay [2], 227 nM.
`Cn1cc2c(n1)CCCC2N1CC2(CCN(c3ncnc4sc(CC(F)(F)F)cc34)C2)C1` (centres undefined): the IC50 is over 15000 nM with MOLM-14, 120 nM in assay [1], 2100 nM in the assay on MV4-11 and 385 nM in assay [2].
The matching figures for `CC(C)[C@@H](C1CNC1)N1CC2(CCN(c3ncnc4sc(CC(F)(F)F)cc34)C2)C1`: 10300 nM, 110 nM, 3400 nM and 190 nM.
The matching figures for `O=C([C@@H]1CC2(CC2)CN1)N1CC2(CCN(c3ncnc4sc(CC(F)(F)F)cc34)C2)C1`: 11300 nM, 92 nM, 2600 nM and 102 nM.
The matching figures for `CC(C)[C@H](C1CNC1)N1CC2(CCN(c3ncnc4sc(CC(F)(F)F)cc34)C2)C1`: 860 nM, 21 nM, 80 nM and 8 nM.
In the case of `FC(F)(F)Cc1cc2c(N3CCC4(CN(Cc5ccccc5)C4)C3)ncnc2s1`, the IC50 in the assay with MOLM-14 was determined as 4600 nM; in assay [1] it was 56 nM; in the assay on MV4-11, 3700 nM; in assay [2] it was 144 nM.
